Assay results published in patent US9975896B2, “Inhibitors of transcription factors and uses thereof” (Dana-Farber Cancer Institute, Inc., priority 2013, dated 2018).
Where two headings read alike, the source gives them in different places.

Legend:
BRD4 = BRD4 (Homo sapiens, UniProt O60885); assay: In vitro AlphaScreen protein binding assay (competition with biotinylated JQ1)
Experimental: Assays were performed with minor modifications from the manufacturer's protocol (PerkinElmer, USA). All reagents were diluted in 50 mM HEPES, 150 mM NaCl, 0.1% w/v BSA, and 0.01% w/v Tween® 20 at pH 7.5 and allowed to equilibrate to room temperature prior to addition to plates. After addition of Alpha beads to master solutions, all subsequent steps were performed in low light conditions. […] After a 1000-rpm spin-down for 1 minute, 100 nL of the solutions of compounds of the invention in DMSO from stock plates were added by pin transfer using a Janus Workstation (PerkinElmer, USA). The streptavidin-coated donor beads (25 μg/ml final) were added as with previous solution in a 2×, 10 μL volume. Following this addition, the plates were sealed with foil to block light exposure and to prevent evaporation. The plates were spun down again at 1000 rpm for 1 minute. Next, the plates were incubated in the room with the plate reader (for temperature equilibration) for 1 hour prior to reading the assay. Signal is stable for up to 3 hours after donor bead addition.

[1] = system: lung carcinoma cell line H2171; assay: Cellular IC50 in lung carcinoma cell line H2171; format: cell-based
Experimental: Cells (e.g., BRD4 dependant cells) were counted and adjusted to 60,000 cells/mL. Using a Biotek EL406, 50 μL of the cells in media were distributed into 384 well white plates from Thermo. Immediately after plating, compounds of the invention in DMSO were distributed to plates. For large plate sets, cells were returned to a 37° C. incubator while not in use. The compounds were added to plates using a 100 nL 384 well pin transfer manifold on a Janus workstation. Stocks were arrayed in 10 point quadruplicate dose response in DMSO stock in 384-well Greiner compound plates. After addition of the compounds, plates were incubated for three days in a 37° C. incubator. Cell viability was read out using ATPlite from Perkin Elmer. Plates were removed from the incubator and brought to room temperature prior to use. Lyophilized powder was resuspended in lysis buffer and diluted 1:2 with DI water. 25 μL of this solution was added to each well using the Biotek liquid handler. Plates were sealed with adherent aluminum seals prior to vortexing and spinning down at 1000 g for 1 minute. Plates were incubated for 15 minutes at room temperature before signal was read on an Envision Plate Reader.

[2] = system: BRD4-dependent Nut-Midline Carcinoma line 797; assay: Cell viability (ATPlite) in BRD4 dependant cell line 797; settings: Homo sapiens
[3] = read-out: BRD4--IC50, Table 6, biochemical
[4] = read-out: BRD4--IC50, Table 7, biochemical
[5] = read-out: BRD4--IC50, Table 5, biochemical
[6] = Table 1, in vitro, AlphaScreen, inhibiting the activity of BRD4

IC50 (BRD4; [3])	EC50 ([2]; read-out: 797--EC50 (μM))	EC50 [2]	IC50 (BRD4; [6])	SMILES	further results
3.89 µM				Cc1noc(C)c1-c1ccc(-c2nc3ccccn3c2N)cc1 [Compound 12a, 2-(4-(3,5-Dimethylisoxazol-4-yl)phenyl)imidazo[1,2-a]pyridin-3-amine]	
2.86 µM				Cc1noc(C)c1-c1ccc(-c2nc3cnccn3c2N[C@@H](C)c2ccccc2)cc1 [Compound 21a, (S)-2-(4-(3,5-dimethylisoxazol-4-yl)phenyl)-N-(1-phenylethyl)imidazo[1,2-a]pyrazin-3-amine]	
				Cc1noc(C)c1-c1ccc(-c2nc3cnccn3c2NCC(=O)O)cc1 [Compound 22a, 2-((2-(4-(3,5-Dimethylisoxazol-4-yl)phenyl)imidazo[1,2-a]pyrazin-3-yl)amino)acetic acid]	IC50 (BRD4; BRD4--IC50 (μM), Table 6, biochemical): > 100 µM
4.53 µM				CCOC(=O)CNc1c(-c2ccc(-c3c(C)noc3C)cc2)nc2cnccn12 [Compound 23a, Ethyl 2-((2-(4-(3,5-dimethylisoxazol-4-yl)phenyl)imidazo[1,2-a]pyrazin-3-yl)amino)acetate]	
4.96 µM				Cc1noc(C)c1-c1ccc(-c2nc3cnccn3c2NCC(=O)OC(C)(C)C)cc1 [Compound 24a, Tert-butyl (2-(4-(3,5-dimethylisoxazol-4-yl)phenyl)imidazo[1,2-a]pyrazin-3-yl)glycinate]	
3.17 µM				Cc1ccc2nc(-c3ccc(-c4c(C)noc4C)cc3)c(NC(C)(C)C)n2c1 [Compound 27a, N-(tert-butyl)-2-(4-(3,5-dimethylisoxazol-4-yl)phenyl)-6-methylimidazo[1,2-a]pyridin-3-amine]	
11.9 µM				Cc1noc(C)c1-c1ccc(-c2nc3c(C(F)(F)F)cccn3c2NC(C)(C)C)cc1 [Compound 28a, N-(tert-butyl)-2-(4-(3,5-dimethylisoxazol-4-yl)phenyl)-8-(trifluoromethyl)imidazo[1,2-a]pyridin-3-amine]	
1.62 µM				COC(=O)c1ccc2nc(-c3ccc(-c4c(C)noc4C)cc3)c(NC(C)(C)C)n2c1 [Compound 29a, Methyl 3-(tert-butylamino)-2-(4-(3,5-dimethylisoxazol-4-yl)phenyl)imidazo[1,2-a]pyridine-6-carboxylate]	
0.968 µM				Cc1noc(C)c1-c1ccc(-c2nc3ccc(C(=O)O)cn3c2NC(C)(C)C)cc1 [Compound 30a, 3-(Tert-butylamino)-2-(4-(3,5-dimethylisoxazol-4-yl)phenyl)imidazo[1,2-a]pyridine-6-carboxylic acid]	
0.86 µM				Cc1noc(C)c1-c1ccc(-c2nc3ncccn3c2NC(C)(C)C)cc1 [Compound 33a, N-(Tert-butyl)-2-(4-(3,5-dimethylisoxazol-4-yl)phenyl)imidazo[1,2-a]pyrimidin-3-amine]	
1.66 µM				CCCCNc1c(-c2ccc(-c3c(C)noc3C)cc2)nc2cnccn12 [Compound 35a, N-butyl-2-(4-(3,5-dimethylisoxazol-4-yl)phenyl)imidazo[1,2-a]pyrazin-3-amine]	
				COc1cc(-c2c(C)noc2C)ccc1-c1nc2cnccn2c1NC(C)(C)C [Compound 39a, N-(tert-butyl)-2-(4-(3,5-dimethylisoxazol-4-yl)-2-methoxyphenyl)imidazo[1,2-a]pyrazin-3-amine]	IC50 (BRD4; [4]): 0.562 µM
				COc1cc(-c2c(C)noc2C)ccc1-c1nc2cnccn2c1NC(C)C [Compound 40a, 2-(4-(3,5-dimethylisoxazol-4-yl)-2-methoxyphenyl)-N-isopropylimidazo[1,2-a]pyrazin-3-amine]	IC50 (BRD4; [4]): 0.474 µM
				Cc1noc(C)c1-c1ccc(-c2nc3ccccn3c2NCc2ccccc2)cc1 [UMB11, N-Benzyl-2-(4-(3,5-dimethylisoxazol-4-yl)phenyl)imidazo[1,2-α]pyridin-3-amine]	IC50 ([1]; Homo sapiens, NCI-H2171, Table 2, cellular, lung carcinoma cell line H2171): 0.76 µM; cellular activity in H2171 ([1]; text b616): show cellular activity in H2171
	9.91 µM			CCCCN1C(=O)c2ccccc2NC(=O)C1c1ccc(-c2c(C)noc2C)c(OC)c1 (stereo not drawn) [UMB18, 2-Butyl-3-(4-(3,5-dimethylisoxazol-4-yl)-3-methoxyphenyl)-2,3-dihydro-1H-benzo[e][1,4]diazepine-1,4(5H)-dione]	IC50 (BRD4; [5]): 13 µM
11.8 µM	18.4 µM	18.4 µM	11.8 µM	Cc1noc(C)c1-c1ccc(-c2nc3ccc(Cl)cn3c2NCc2ccccc2)cc1 [UMB20, N-Benzyl-6-chloro-2-(4-(3,5-dimethylisoxazol-4-yl)phenyl)imidazo[1,2-α]pyridin-3-amine]	

IC50 (BRD4; [3])	EC50 ([2]; read-out: 797--EC50 (μM))	EC50 [2]	IC50 (BRD4; [6])	SMILES	further results
18.8 µM	49.1 µM	49.1 µM	18.8 µM	Cc1noc(C)c1-c1ccc(-c2nc3cnccn3c2NCc2ccccc2)cc1 [UMB21, N-Benzyl-2-(4-(3,5-dimethylisoxazol-4-yl)phenyl)imidazo[1,2-α]-pyrazin-3-amine]	
		12.4 µM	68.3 µM	Cc1noc2ccc(-c3ccc(-c4nc5ccccn5c4NCc4ccccc4)cc3)cc12 [UMB22]	
31.5 µM	20.7 µM	20.7 µM	31.5 µM	COc1ccc(Nc2c(-c3ccc(-c4c(C)noc4C)cc3)nc3ccc(Cl)cn23)cc1 [UMB23, 6-Chloro-2-(4-(3,5-dimethylisoxazol-4-yl)phenyl)-N-(4-methoxy-phenyl)imidazo-[1,2-α]pyridine-3-amine]	
2.89 µM	11.8 µM	11.8 µM	2.89 µM	COc1ccc(Nc2c(-c3ccc(-c4c(C)noc4C)cc3)nc3cc(OC)ncn23)cc1 [UMB24, 2-(4-(3,5-Dimethylisoxazol-4-yl)phenyl)-7-methoxy-N-(4-methoxy-phenyl)imidazo[1,2-c]pyrimidin-3-amine]	
		20.2 µM	5.1 µM	Cc1noc(C)c1-c1cccc(-c2nc3ccccn3c2NCc2ccccc2)c1 [UMB26]	
	> 100 µM	207 µM	2.05 µM	Cc1noc(C)c1-c1cccc(C2Nc3ccccc3NC3=C2C(=O)OC3)c1 (stereo not drawn) [UMB27, 10-(3-(3,5-Dimethylisoxazol-4-yl)phenyl)-3,4,9,10-tetrahydro-1H-benzo[b]furo[3,4-e][1,4]diazepin-1-one]	IC50 (BRD4; [5]): 2.05 µM
0.904 µM	5.07 µM	5.07 µM	0.904 µM	Cc1noc(C)c1-c1ccc(-c2nc3ccccn3c2NC2CCCCC2)cc1 [UMB28, N-Cyclohexyl-2-(4-(3,5-dimethylisoxazol-4-yl)phenyl)imidazo[1,2-α]pyridin-3-amine]	
0.479 µM	2.04 µM	2.04 µM	0.479 µM	Cc1noc(C)c1-c1ccc(-c2nc3ccccn3c2NC(C)(C)C)cc1 [UMB29, N-(t-Butyl)-2-(4-(3,5-dimethylisoxazol-4-yl)phenyl)imidazo[1,2-α]pyridin-3-amine]	
2.76 µM	7.36 µM	7.36 µM	2.76 µM	COc1ccc(Nc2c(-c3ccc(-c4c(C)noc4C)cc3)nc3ccccn23)cc1 [UMB30, 2-(4-(3,5-Dimethylisoxazol-4-yl)phenyl)-N-(4-methoxyphenyl)imidazo-[1,2-α]pyridin-3-amine]	
1.17 µM	2.19 µM	2.19 µM	1.17 µM	Cc1noc(C)c1-c1ccc(-c2nc3ccc(Cl)cn3c2NC(C)(C)C)cc1 [UMB31, N-(t-Butyl)-6-chloro-2-(4-(3,5-dimethylisoxazol-4-yl)phenyl)-imidazo-[1,2-α]pyridin-3-amine]	
	> 100 µM			Cc1noc(C)c1-c1ccc(-c2nc3cnccn3c2NC(C)(C)C)cn1 [UMB53, N-(tert-butyl)-2-(6-(3,5-dimethylisoxazol-4-yl)pyridin-3-yl)imidazo[1,2-a]pyrazin-3-amine]	IC50 (BRD4; [4]): 51.9 µM
	8.29 µM			Cc1noc(C)c1-c1ccc(-c2nc3cnccn3c2NC(C)(C)C)nc1 [UMB54, N-(tert-butyl)-2-(5-(3,5-dimethylisoxazol-4-yl)pyridin-2-yl)imidazo[1,2-a]pyrazin-3-amine]	IC50 (BRD4; [4]): 12.9 µM
	12.8 µM			Cc1noc(C)c1-c1ccc(-c2nc3cnccn3c2NC(C)(C)C)cc1F [UMB55, N-(tert-butyl)-2-(4-(3,5-dimethylisoxazol-4-yl)-3-fluorophenyl)imidazo[1,2-a]pyrazin-3-amine]	IC50 (BRD4; [4]): 13 µM
20.7 µM				Cc1noc(C)c1-c1ccc(-c2nc3ccncn3c2NC(C)(C)C)cc1 [UMB56, N-(Tert-butyl)-2-(4-(3,5-dimethylisoxazol-4-yl)phenyl)imidazo[1,2-c]pyrimidin-3-amine]	
0.807 µM	0.494 µM			Cc1noc(C)c1-c1ccc(-c2nc3cnccn3c2NC(C)C)cc1 [UMB57, 2-(4-(3,5-dimethylisoxazol-4-yl)phenyl)-N-isopropylimidazo[1,2-a]pyrazin-3-amine]	

SMILES	IC50 (BRD4; [3])	EC50 ([2]; read-out: 797--EC50 (μM))	EC50 [2]	IC50 (BRD4; [6])	further results
COc1ccc(Nc2c(-c3ccc(-c4c(C)noc4C)cc3)nc3cnccn23)cc1 [UMB25, 2-(4-(3,5-Dimethylisoxazol-4-yl)phenyl)-N-(4-methoxyphenyl)imidazo[1,2-a]pyrazin-3-amine]	7.86 µM	32.8 µM	32.8 µM		
